Like-named read-outs stand apart in the source and are kept apart here.

For orientation: AC50 means the concentration at which the activity in the assay is half-maximal.

The assay concerns the target T1, human PAH with the R408W mutation (Homo sapiens, UniProt P00439, R408W).
T1 construct: expressed in transfected cells
T1 sequence (P00439 1-452 R408W): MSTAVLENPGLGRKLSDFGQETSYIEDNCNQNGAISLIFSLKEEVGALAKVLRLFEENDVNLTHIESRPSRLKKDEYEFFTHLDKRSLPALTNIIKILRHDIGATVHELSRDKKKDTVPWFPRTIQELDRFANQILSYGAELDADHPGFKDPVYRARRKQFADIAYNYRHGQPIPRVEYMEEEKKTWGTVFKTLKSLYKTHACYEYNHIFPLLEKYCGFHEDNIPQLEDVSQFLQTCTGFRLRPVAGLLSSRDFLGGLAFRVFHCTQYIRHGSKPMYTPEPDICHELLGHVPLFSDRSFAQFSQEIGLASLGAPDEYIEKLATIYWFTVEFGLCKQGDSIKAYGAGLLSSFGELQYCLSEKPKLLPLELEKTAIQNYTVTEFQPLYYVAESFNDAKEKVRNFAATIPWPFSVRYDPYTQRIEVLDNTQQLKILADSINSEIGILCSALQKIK
Nature of the assay: Cell Based Phenylalanine Flux Assay. Also noted: scale not given here. The conditions noted are these: 13C-Tyrosine by LC-MS, average where tested multiple times.

Where [1] appears, read: A375 cells expressing human R408W PAH, 24 hrs compound incubation, read-out: AC50.
Where [2] appears, read: A375 R408W cells, 24 hrs with compound, then 20 μM sepiapterin and 800 μM 13C9,15N-Phenylalanine for 4 hours, read-out: AC50.
Setting [3] is: A375 R408W cells, 24 hrs with compound, then 20 μM sepiapterin and 800 μM 13C9,15N-Phenylalanine for 4 hours.

As to “(R)-(5-(1-methyl-1H-imidazol-4-yl)-1,3-oxadiazol-2- yl)(4-(quinazolin-2-yl)-6,7-dihydro-1H-imidazo[4,5- c]pyridin-5(4H)-yl)methanone [Example 198]”, the AC50 under setting [1] is over 5 µM.

As to `Cc1ccc(-c2nnc(C(=O)N3CCc4[nH]cnc4C3c3ccc4ccccc4n3)o2)nc1` (stereo in doubt) [Example 104, (R)-(5-(5-methylpyridin-2-yl)-1,3,4-oxadiazol-2-yl)(4-(quinolin-2-yl)-6,7-dihydro-1H-imidazo[4,5-c]pyridin-5(4H)-yl)methanone], under setting [1], the concentration at half-maximal activity (AC50) was under 0.5 µM.

With `CC(C)(O)c1cc(C(=O)N2CCc3[nH]cnc3C2c2ccc3ccccc3n2)on1` (stereo not drawn), under setting [2], the half-maximal activity concentration (AC50) is 1 to 5 µM.

As for `O=C(c1cnn2cc(-c3ncccc3F)ccc12)N1CCc2[nH]cnc2[C@H]1c1cc2ccccc2cn1` [Example 482, (R)-(6-(3-fluoropyridin-2-yl)pyrazolo[1,5-a]pyridin-3-yl)(4-(isoquinolin-3-yl)-6,7-dihydro-1H-imidazo[4,5-c]pyridin-5(4H)-yl)methanone], the concentration at half-maximal activity (AC50) under setting [1] was under 0.5 µM.

Regarding `O=C(c1nnc(N2CCOCC2)o1)N1CCc2[nH]cnc2C1c1ccc2ccccc2n1` (stereo not drawn), the half-maximal activity concentration (AC50) under setting [2] was 1 to 5 µM.

As for `C[C@H]1CN(C(=O)c2oc(C(C)(C)O)nc2C2CC2)[C@H](c2cc3ccccc3cn2)c2nc[nH]c21` [Example 399, (4-cyclopropyl-2-(2-hydroxypropan-2-yl)oxazol-5-yl)((4R,7S)-4-(isoquinolin-3-yl)-7-methyl-6,7-dihydro-1H-imidazo[4,5-c]pyridin-5(4H)-yl)methanone], the half-maximal activity concentration (AC50) under setting [1] was under 0.5 µM.

In the case of `O=C(c1nnc(-c2ccc(F)cn2)o1)N1CCc2[nH]cnc2C1c1ccc2ccccc2n1` (stereo in doubt) [Example 33, (R)-(5-(5-fluoropyridin-2-yl)-1,3,4-oxadiazol-2-yl)(4-(quinolin-2-yl)-6,7-dihydro-1H-imidazo[4,5-c]pyridin-5(4H)-yl)methanone], the half-maximal activity concentration (AC50) under setting [1] lay within 1 to 5 µM.

In the case of `O=C(c1nnc(-c2ccn(C(F)F)n2)o1)N1CCc2[nH]cnc2[C@@H]1c1ncc2ccccc2n1` [Example 190, (R)-(5-(1-(difluoromethyl)-1H-pyrazol-3-yl)-1,3,4-oxadiazol-2-yl)(4-(quinazolin-2-yl)-6,7-dihydro-1H-imidazo[4,5-c]pyridin-5(4H)-yl)methanone], the AC50 under setting [1] lay within 1 to 5 µM.

Take `CC(C)(O)c1nc(C(F)F)c(C(=O)N2CCc3[nH]cnc3C2c2ccc3ccccc3n2)o1` (stereo in doubt) [Example 91, (R)-(4-(difluoromethyl)-2-(2-hydroxypropan-2-yl)oxazol-5-yl)(4-(quinolin-2-yl)-6,7-dihydro-1H-imidazo[4,5-c]pyridin-5(4H)-yl)methanone]: the AC50 under setting [1] is under 0.5 µM.

As for `Cc1nc(C(C)(C)C)oc1C(=O)N1CCc2[nH]cnc2C1c1ccc2ccccc2n1` (stereo in doubt) [Example 7, (R)-(2-(tert-butyl)-4-methyloxazol-5-yl)(4-(quinolin-2-yl)-6,7-dihydro-1H-imidazo[4,5-c]pyridin-5(4H)-yl)methanone], the AC50 under setting [1] fell in the range of 0.5 to 1 µM.

With `O=C(c1nnc(C2CC2)o1)N1CCc2[nH]cnc2C1c1ccc2ccccc2n1` (stereo in doubt) [Example 9, (R)-(5-cyclopropyl-1,3,4-oxadiazol-2-yl)(4-(quinolin-2-yl)-6,7-dihydro-1H-imidazo[4,5-c]pyridin-5(4H)-yl)methanone], the concentration at half-maximal activity (AC50) under setting [1] was 0.5 to 1 µM.

Regarding `O=C(c1nnc(-c2cnccn2)o1)N1CCc2[nH]cnc2[C@@H]1c1ncc2ccccc2n1` [Example 191, (R)-(5-(pyrazin-2-yl)-1,3,4-oxadiazol-2-yl)(4-(quinazolin-2-yl)-6,7-dihydro-1H-imidazo[4,5-c]pyridin-5(4H)-yl)methanone], the AC50 under setting [1] is over 5 µM.

As to `O=C(c1cnn2cc(CN3CCOCC3)ccc12)N1CCc2[nH]cnc2[C@H]1c1cc2ccccc2cn1` [Example 484, (R)-(4-(isoquinolin-3-yl)-6,7-dihydro-1H-imidazo[4,5-c]pyridin-5(4H)-yl)(6-(morpholinomethyl)pyrazolo[1,5-a]pyridin-3-yl)methanone], the AC50 under setting [1] was under 0.5 µM.

Consider `Cc1nn(C)cc1-c1nnc(C(=O)N2CCc3[nH]cnc3[C@H]2c2cc3ccccc3cn2)o1` [Example 450, (R)-(5-(1,3-dimethyl-1H-pyrazol-4-yl)-1,3,4-oxadiazol-2-yl)(4-(isoquinolin-3-yl)-6,7-dihydro-1H-imidazo[4,5-c]pyridin-5(4H)-yl)methanone], for which the AC50 under setting [1] is under 0.5 µM.

For `CC(C)(C)c1ncc(C(=O)N2CCc3[nH]cnc3[C@H]2c2cn3ccccc3n2)o1` [Example 250, (R)-(2-(tert-butyl)oxazol-5-yl)(4-(imidazo[1,2-a]pyridin-2-yl)-6,7-dihydro-1H-imidazo[4,5-c]pyridin-5(4H)-yl)methanone], the concentration at half-maximal activity (AC50) under setting [1] was 0.5 to 1 µM.

Regarding `C[C@H]1CN(C(=O)c2nnc(C(C)(C)C)o2)[C@@H](c2cc3ccccc3cn2)c2nc[nH]c21` [Example 427, (5-(tert-butyl)-1,3,4-oxadiazol-2-yl)((4S,7S)-4-(isoquinolin-3-yl)-7-methyl-6,7-dihydro-1H-imidazo[4,5-c]pyridin-5(4H)-yl)methanone], the AC50 under setting [1] was 1 to 5 µM.

For the compound `O=C(c1nnc(-c2c(F)cccc2F)o1)N1CCc2[nH]cnc2[C@@H]1c1ccc2ccccc2n1` [Example 24], the AC50 under setting [1] is over 5 µM.

As for `Cc1nnc(C(=O)N2CCc3[nH]cnc3C2c2ccc3ccccc3n2)o1` (stereo not drawn), the AC50 under setting [2] was over 5 µM.

As to `CC1CN(C(=O)c2oc(C(C)(C)O)nc2C(F)(F)F)C(c2cc3ccccc3cn2)c2nc[nH]c21` [(4R, 7S) diastereomer of (2-(2-hydroxypropan-2-yl)-4-(triflu], the concentration at half-maximal activity (AC50) entry under setting [3] is reported as “E, E,”.

Turning to `Cc1nnc(C(=O)N2CCc3[nH]cnc3C2c2ncc3ccccc3n2)o1` (stereo not drawn), under setting [2], the AC50 is over 5 µM.

As for `Cc1nc([C@H](C)O)oc1C(=O)N1CCc2[nH]cnc2C1c1ccc2ccccc2n1` (stereo in doubt) [Example 99, (2-((S)-1-hydroxyethyl)-4-methyloxazol-5-yl)((R)-4-(quinolin-2-yl)-6,7-dihydro-1H-imidazo[4,5-c]pyridin-5(4H)-yl)methanone], under setting [1], the half-maximal activity concentration (AC50) is 1 to 5 µM.

Turning to `O=C(C1CN(CC(F)(F)F)C1)N1CCc2[nH]cnc2C1c1ccc2ccccc2n1` (stereo not drawn), under setting [2], the AC50 lay in the range of 1 to 5 µM.

Turning to `O=C(c1cnn2ccccc12)N1CCc2[nH]cnc2[C@@H]1c1cn2ccccc2n1` [Example 226, (S)-(4-(imidazo[1,2-a]pyridin-2-yl)-6,7-dihydro-1H-imidazo[4,5-c]pyridin-5(4H)-yl)(pyrazolo[1,5-a]pyridin-3-yl)methanone], the half-maximal activity concentration (AC50) under setting [1] is over 5 µM.

Regarding `CC1CN(C(=O)c2nnc(N(C)C)o2)C(c2cc3ccccc3cn2)c2nc[nH]c21` (stereo not drawn), the AC50 under setting [2] is over 5 µM.

For `Cc1c(-c2nnc(C(=O)N3CCc4[nH]cnc4[C@H]3c3cc4ccccc4cn3)o2)cnn1C` [Example 446, (R)-(5-(1,5-dimethyl-1H-pyrazol-4-yl)-1,3,4-oxadiazol-2-yl)(4-(isoquinolin-3-yl)-6,7-dihydro-1H-imidazo[4,5-c]pyridin-5(4H)-yl)methanone], under setting [1], the half-maximal activity concentration (AC50) was under 0.5 µM.

Take `CC1CN(C(=O)c2oc(-c3ccccn3)nc2C(F)(F)F)C(c2cc3ccccc3cn2)c2nc[nH]c21` [(4S, 7S) diastereomer of (4-(isoquinolin-3-yl)-7-methyl-6,7-]: the AC50 entry under setting [3] is given as “E, E”.

For `C[C@H]1CN(C(=O)c2nnc(C3CC3)o2)[C@H](c2cc3ccccc3cn2)c2nc[nH]c21` [Example 511, (5-cyclopropyl-1,3,4-oxadiazol-2-yl)((4R,7S)-4-(isoquinolin-3-yl)-7-methyl-6,7-dihydro-1H-imidazo[4,5-c]pyridin-5(4H)-yl)methanone], the AC50 under setting [1] lay within 0.5 to 1 µM.

Consider `CC1CN(C(=O)c2nnc(N3CCN(C)CC3)o2)C(c2cc3ccccc3cn2)c2nc[nH]c21` [(4S, 7S) diastereomer of 3-[7-methyl-5-[5-(4-methylpiperazin], for which the concentration at half-maximal activity (AC50) entry under setting [3] is on record as “E, E”.

In the case of `C[C@H]1CN(C(=O)c2nnc(C(C)(C)F)o2)[C@@H](c2cc3ccccc3cn2)c2nc[nH]c21` [Example 498, (5-(2-fluoropropan-2-yl)-1,3,4-oxadiazol-2-yl)((4S,7S)-4-(isoquinolin-3-yl)-7-methyl-6,7-dihydro-1H-imidazo[4,5-c]pyridin-5(4H)-yl)methanone], under setting [1], the AC50 is 1 to 5 µM.

As for `Cc1nc(-c2ccccn2)oc1C(=O)N1CCc2[nH]cnc2C1c1ccc2ccccc2n1` (stereo in doubt) [Example 31, (R)-(4-methyl-2-(pyridin-2-yl)oxazol-5-yl)(4-(quinolin-2-yl)-6,7-dihydro-1H-imidazo[4,5-c]pyridin-5(4H)-yl)methanone], under setting [1], the half-maximal activity concentration (AC50) lay within 0.5 to 1 µM.

For the compound `CC(C)(C)c1ncc(C(=O)N2CCc3[nH]cnc3C2c2ccc3ccccc3n2)s1` (stereo in doubt) [Example 3, (R)-(2-(tert-butyl)thiazol-5-yl)(4-(quinolin-2-yl)-6,7-dihydro-1H-imidazo[4,5-c]pyridin-5(4H)-yl)methanone], the AC50 under setting [1] was under 0.5 µM.

As for `O=C(c1ocnc1-c1ccccn1)N1CCc2[nH]cnc2C1c1cn2ccccc2n1` (stereo not drawn), the AC50 under setting [2] is 1 to 5 µM.

As to `O=C(C1CC1(F)F)N1CCc2[nH]cnc2C1c1cn2ccccc2n1` (stereo not drawn), the AC50 under setting [2] lay in the range of 1 to 5 µM.

The values are drawn from patent US20250262201A1, “COMPOUNDS AND METHODS USEFUL FOR STABILIZING PHENYLALANINE HYDROXYLASE MUTATIONS” (Agios Pharmaceuticals, Inc., priority 2022, published 2025).
